From patent US5721219A, “N-alkyl-2-substituted ATP analogues and administration to inhibit platelet aggregation” (Astra Pharmaceuticals Ltd., priority 1993, dated 1998)
Structures can show the parent of a compound that is named as a salt.

Legend:
guinea pig taenia coli = conditions: Maguire and Satchell 1979; cited from earlier work
platelet aggregation = conditions: Cusack and Hourani, Nucleosides & Nucleotides 1991; cited from earlier work
P2T receptor = target: T1, P2T receptor (Homo sapiens, UniProt Q9H244); experiment: P2T receptor agonist/antagonist activity in washed human platelets (inhibition of ADP-induced aggregation); format: cell-based; conditions: submaximal ADP, 15 min incubation with test compound, 8-SPT present, % inhibition of control ADP response giving approximate IC50, read-out: pIC50 (negative logarithm of the antagonist potency) (converted)
T1 construct: activity in washed human platelets; endogenous in cells; host or cells: washed human platelets from venous blood of donors
Method: Quantification of P2T receptor aganoist/antagonist activity in washed human platelets Human venous blood (100 ml) was divided equally between 3 tubes, each containing 3.2% trisodium citrate (4 ml) as anti-coagulant. The tubes were centrifuged for 15 min at 240G to obtain a platelet-rich plasma (PRP) to which 300 ng.ml^-1 prostacyclin (PGI2, 3 μl.ml^-1 PRP of 1/10 diln. in saline from stock 1 mg/ml^-1 in ethanol) was added to stabilize the platelets during the washing procedure. Red cell free PRP was obtained by centrifugation for 10 min at 125G followed by further centrifugation for 15 min at 640G. The supernatant was discarded and the platelet pellet resuspended in modified, calcium free, Tyrode solution [(10 ml) CFT, composition: NaCl 137 mM (8 g.l^-1), NaHCO3 11.9 mM (1 g.l^-1), NaH2 PO, 0.38 mM (0.06 g.l^-1), KCl 2.86 mM (1 ml of 20% soln.l^-1), MgCl2 1.05 mM (1 ml of 10% soln.l^-1), dextrose 5.55 mM (1 g.l^-1)], gassed with 95% O2 /5% CO2 and maintained at 37°. Following addition of a further 300 ng.ml^-1PGI2, the pooled suspension was centrifuged once more for 15 min at 640G. The supernatant was discarded and the platelets resuspended initially in 10 ml CFT with further CFT added to adjust the final platelet count to 2×10^5.μl^-1. This final suspension was stored in a 60 ml syringe at 3° with air excluded.
To allow recovery from PGI2 -inhibition of normal function, platelets were used in aggregation studies no sooner than 2 hours after final resuspension. […]
A concentration of ADP producing a just submaximal response was selected by constructing a concentration/response curve over the range 10-300 μM. the appropriate solution of ADP was added to the aggregation cuvette in a volume of 10 μl, 20 min after starting the aggregation trace. Aggregation responses were measured using the maximum rate of change in light transmission, an index given by the PAP4 slope-reader. […]

T1 sequence (Q9H244 whole entry): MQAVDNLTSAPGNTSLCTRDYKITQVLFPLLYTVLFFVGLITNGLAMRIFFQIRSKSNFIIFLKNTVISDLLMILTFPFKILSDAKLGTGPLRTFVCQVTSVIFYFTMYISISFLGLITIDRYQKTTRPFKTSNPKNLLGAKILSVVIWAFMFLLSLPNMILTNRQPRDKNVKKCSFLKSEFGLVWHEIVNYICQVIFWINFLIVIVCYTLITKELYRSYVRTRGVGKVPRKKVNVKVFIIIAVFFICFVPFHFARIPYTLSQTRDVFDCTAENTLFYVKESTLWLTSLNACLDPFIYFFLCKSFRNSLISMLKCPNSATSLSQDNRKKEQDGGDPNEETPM

SMILES | IC50 (P2T receptor) | further results
Nc1nc(Cl)nc2c1ncn2[C@@H]1O[C@H](COP(=O)(O)OP(=O)(O)CP(=O)(O)O)[C@@H](O)[C@H]1O [2-chloro-5'-adenylic acid, monoanhydride with methylenebisphosphonic acid] | – | inhibition of guinea pig taenia coli (guinea pig taenia coli): inhibition
CSc1nc(N)c2ncn([C@@H]3O[C@H](COP(=O)(O)OP(=O)(O)CP(=O)(O)O)[C@@H](O)[C@H]3O)c2n1 [2-methylthio-5'-adenylic acid, monoanhydride with methylenebisphosphonic acid] | – | inhibition of ADP-α-S induced platelet aggregation (platelet aggregation): inhibits
CCCSc1nc(NCC)c2ncn([C@@H]3O[C@H](COP(=O)(O)OP(=O)(O)C(Cl)(Cl)P(=O)(O)O)[C@@H](O)[C@H]3O)c2n1 [Example 1, N-Ethyl-2-(propylthio)-5'-adenylic acid, monoanhydride with dichloromethylenebisphosphonic acid, tetrasodium salt] | 0.912 nM | –

Second part, led by results:

IC50 (P2T receptor) | SMILES | further results
2.09 nM | CCNc1nc(SCCC(F)(F)F)nc2c1ncn2[C@@H]1O[C@H](COP(=O)(O)OP(=O)(O)C(Cl)(Cl)P(=O)(O)O)[C@@H](O)[C@H]1O [Example 5, N-Ethyl-2-[(3,3,3-trifluoropropyl)thio]-5'-adenylic acid, monoanhydride with dichloromethylenebisphosphonic acid, trisodium salt] | –
0.724 nM | O=P(O)(OC[C@H]1O[C@@H](n2cnc3c(NCC(F)(F)F)nc(SCCC(F)(F)F)nc32)[C@H](O)[C@@H]1O)OP(=O)(O)C(Cl)(Cl)P(=O)(O)O [Example 6a, N-(2,2,2-Trifluoroethyl)-2-[(3,3,3-trifluoropropyl)thio]-5'-adenylic acid, monoanhydride with dichloromethylenebisphosphonic acid, triammonium salt] | –
